US10383859B2, “Benzo[d]thiazole derivative or salt thereof, and pharmaceutical composition including same” (Yuhan Corporation, priority 2016, dated 2019)

tested on: A549 cells; assay: Cell migration assay (24-well transwell, laminin); type: cell-based, human; conditions: Homo sapiens, A549, 6 h, laminin 10 μg/mL in lower well, test compounds 0.39˜100 μM, migrated cells counted, read-out: Inhibitory activity against cell migration
Protocol: Cell migration was measured with a 24-well transwell having a polycarbonate membrane (8.0 μm pore size, Costar) at the bottom of the upper chamber. Each lower well was treated with laminin (10 μg/mL) and test compounds in predetermined concentrations (0.39˜100 μM) along with a serum-free RPMI1640 medium. A549 cells (Korean Cell Line Bank) were suspended in a serum-free RPMI1640 medium at a concentration of 1×10^6 cells/mL and then the test compounds were added thereto at the indicated concentrations. Each resulting solution (100 μL) was added to the upper chamber. The cells were cultured at 37° C. for 6 hours in a CO2 incubator. The upper chamber was taken out and then the cells were fixed with PBS containing 70% methyl alcohol for 10 minutes, followed by washing with PBS twice. The cells were stained with hematoxylin (Sigma) for 10 minutes and then washed with distilled water. The non-migrated cells were removed from the upper portion of the polycarbonate membrane with a cotton swab. The membranes were excised and separated from the chamber, and then mounted to a slide using a gel mount reagent (Biomeda, USA). The migrated cells (attached to the lower face of the membrane) were counted at three randomly selected sites under a microscope (×20). The cell counting was performed with the Image J program. From the counted cell numbers, each IC50 value was calculated by non-linear regression curve fit using the “GraphPad Prism” program.
The cells are pulled by laminin residing in the lower chamber and then passed through the polycarbonate membrane, so as to attach to the lower face of the membrane.

IC50 [nM]	Compound
> 10000	CC(c1ccc(C(=O)O)cc1)N(CCc1ccc(Cl)cc1Cl)c1nc2cccc(F)c2s1 (centres unmarked) [Example 59, 4-(1-{[2-(2,4-dichlorophenyl)ethyl](7-fluorobenzo[d]thiazol-2-yl)amino}ethyl)benzoic acid]
< 1000	COc1ccc(CCN(Cc2ccc(C(=O)O)cc2)c2nc3cccc(F)c3s2)cc1Cl [Example 29, 4-({[2-(3-chloro-4-methoxyphenyl)ethyl](7-fluorobenzo[d]thiazol-2-yl)amino}methyl)benzoic acid]
> 10000	CCC(c1ccc(C(=O)O)cc1)N(CCc1ccc(OC)c(C)c1C)c1nc2cccc(F)c2s1 (centres unmarked) [Example 71, 4-(1-{(7-fluorobenzo[d]thiazol-2-yl)[2-(4-methoxy-2,3-dimethylphenyl)ethyl]amino}propyl)benzoic acid]
< 1000	COc1ccc(CCN(Cc2ccc(C(=O)O)cc2)c2nc3ccc(F)c(F)c3s2)cc1 [Example 90, 4-({(6,7-difluorobenzo[d]thiazol-2-yl)-[2-(4-methoxyphenyl)ethyl]amino}methyl)benzoic acid]
< 1000	COc1cc(C)c(CCN(c2nc3cccc(F)c3s2)C(C)c2ccc(C(=O)O)cc2)cc1C (centres unmarked) [Example 64, 4-(1-{(7-fluorobenzo[d]thiazol-2-yl)[2-(4-methoxy-2,5-dimethylphenyl)ethyl]amino}ethyl)benzoic acid]
< 1000	COc1ccc(CCN(Cc2ccc(C(=O)O)cc2)c2nc3cc(C(F)(F)F)ccc3s2)cc1 [Example 120, 4-({[2-(4-methoxyphenyl)ethyl][5-(trifluoromethyl)benzo[d]thiazol-2-yl]amino}methyl)benzoic acid]
> 10000	COc1ccc(CCN(c2nc3cccc(C)c3s2)C(C)c2ccc(C(=O)O)cc2)cc1 (centres unmarked) [Example 110, 4-(1-{[2-(4-methoxyphenyl)ethyl](7-methyl-benzo[d]thiazol-2-yl)amino}ethyl)benzoic acid]
< 1000	Cc1ccc(CCN(Cc2ccc(C(=O)O)cc2)c2nc3cccc(F)c3s2)cc1 [Example 6, 4-(((7-fluorobenzo[d]thiazol-2-yl)(4-methylphenylethyl)amino)methyl)benzoic acid]
< 1000	COc1ccc(CCN(Cc2ccc(C(=O)O)cc2)c2nc3ccc(Cl)cc3s2)cc1 [Example 84, 4-({(6-chloro-benzo[d]thiazol-2-yl)[2-(4-methoxyphenyl)ethyl]amino}methyl)benzoic acid]
< 1000	COc1ccc(CCN(Cc2ccc(C(=O)O)cc2)c2nc3ccc(N)cc3s2)cc1 [Example 81, 4-({(6-amino-benzo[d]thiazol-2-yl)[2-(4-methoxyphenyl)ethyl]amino}methyl)benzoic acid]
> 10000	COc1ccc(CCN(c2nc3ccc(C)cc3s2)C(C)c2ccc(C(=O)O)cc2)cc1 (centres unmarked) [Example 111, 4-(1-{[2-(4-methoxyphenyl)ethyl](6-methyl-benzo[d]thiazol-2-yl)amino}ethyl)benzoic acid]
> 10000	CCOc1ccc(CCN(Cc2ccc(C(=O)O)cc2)c2nc3cccc(F)c3s2)cc1OC [Example 25, 4-({[2-(4-ethoxy-3-methoxyphenyl)ethyl](7-fluorobenzo[d]thiazol-2-yl)amino}methyl)benzoic acid]
< 1000	CCC(c1ccc(C(=O)O)cc1)N(CCc1ccc(OC)cc1)c1nc2cccc(F)c2s1 (centres unmarked) [Example 53, 4-(1-{(7-fluorobenzo[d]thiazol-2-yl)[2-(4-methoxyphenyl)ethyl]amino}propyl)benzoic acid]
< 1000	COc1cc(F)c(CCN(c2nc3cccc(F)c3s2)C(C)c2ccc(C(=O)O)cc2)c(F)c1 (centres unmarked) [Example 67, 4-(1-{[2-(2,6-difluoro-4-methoxyphenyl)ethyl](7-fluorobenzo[d]thiazol-2-yl)amino}ethyl)benzoic acid]
< 1000	COc1ccc(CCN(Cc2ccc(C(=O)O)cc2)c2nc3ccc([N+](=O)[O-])cc3s2)cc1 [Example 79, 4-({[2-(4-methoxyphenyl)ethyl](6-nitro-benzo[d]thiazol-2-yl)amino}methyl)benzoic acid]
< 1000	COc1cc(C)c(CCN(Cc2ccc(C(=O)O)cc2)c2nc3cccc(F)c3s2)cc1C [Example 48, 4-({(7-fluorobenzo[d]thiazol-2-yl)[2-(4-methoxy-2,5-dimethylphenyl)ethyl]amino}methyl)benzoic acid]
< 1000	COc1ccc(CCN(Cc2ccc(C(=O)O)cc2)c2nc3cccc(F)c3s2)c(F)c1F [Example 43, 4-({[2-(2,3-difluoro-4-methoxyphenyl)ethyl](7-fluorobenzo[d]thiazol-2-yl)amino}methyl)benzoic acid]

IC50 [nM]	Compound
> 10000	COc1ccc(CCN(Cc2ccc(C(=O)O)cc2)c2nc3ccc(Br)cc3s2)cc1 [Example 115, 4-({(6-bromo-benzo[d]thiazol-2-yl)[2-(4-methoxyphenyl)ethyl]amino}methyl)benzoic acid]
> 10000	COc1ccc(CCN(c2nc3ccc(Cl)cc3s2)C(C)c2ccc(C(=O)O)cc2)cc1 (centres unmarked) [Example 108, 4-(1-{(6-chloro-benzo[d]thiazol-2-yl)[2-(4-methoxyphenyl)ethyl]amino}ethyl)benzoic acid]
< 1000	COc1ccc(CCN(Cc2ccc(C(=O)O)cc2)c2nc3ccc(F)cc3s2)cc1 [Example 92, 4-({(6-fluorobenzo[d]thiazol-2-yl)[2-(4-methoxyphenyl)ethyl]amino}methyl)benzoic acid]
< 1000	COc1cc(F)c(CCN(Cc2ccc(C(=O)O)cc2)c2nc3cccc(F)c3s2)cc1F [Example 45, 4-({[2-(2,5-difluoro-4-methoxyphenyl)ethyl](7-fluorobenzo[d]thiazol-2-yl)amino}methyl)benzoic acid]
> 10000	O=C(O)c1ccc(CN(CCc2ccc(Cl)cc2Cl)c2nc3cccc(F)c3s2)cc1 [Example 38, 4-({[2-(2,4-dichlorophenyl)ethyl](7-fluorobenzo[d]thiazol-2-yl)amino}methyl)benzoic acid]
< 1000	COc1ccc(CCN(Cc2ccc(C(=O)O)cc2)c2nc3cccc(Cl)c3s2)cc1 [Example 83, 4-({(7-chloro-benzo[d]thiazol-2-yl)[2-(4-methoxyphenyl)ethyl]amino}methyl)benzoic acid]
1000 to 10000	O=C(O)c1ccc(CN(CCc2ccccc2)c2nc3cccc(F)c3s2)cc1 [Example 22, 4-{[(7-fluorobenzo[d]thiazol-2-yl)(2-phenylethyl)amino]methyl}benzoic acid]
> 10000	COc1ccccc1CCN(Cc1ccc(C(=O)O)cc1)c1nc2cccc(F)c2s1 [Example 16, 4-({(7-fluorobenzo[d]thiazol-2-yl)[2-(2-methoxyphenyl)ethyl]amino}methyl)benzoic acid]
< 1000	COc1ccc(CCN(c2nc3cccc(F)c3s2)C(C)c2ccc(C(=O)O)cc2)c(C)c1C (centres unmarked) [Example 63, 4-(1-{(7-fluorobenzo[d]thiazol-2-yl)[2-(4-methoxy-2,3-dimethylphenyl)ethyl]amino}ethyl)benzoic acid]
> 10000	O=C(O)c1ccc(CN(CCc2ccc(F)cc2F)c2nc3cccc(F)c3s2)cc1 [Example 39, 4-({[2-(2,4-difluorophenyl)ethyl](7-fluorobenzo[d]thiazol-2-yl)amino}methyl)benzoic acid]
> 10000	COc1ccc(CCN(c2nc3cc(F)c(F)cc3s2)C(C)c2ccc(C(=O)O)cc2)cc1 (centres unmarked) [Example 100, 4-(1-{(5,6-difluorobenzo[d]thiazol-2-yl)[2-(4-methoxyphenyl)ethyl]amino}ethyl)benzoic acid]
> 10000	CCC(c1ccc(C(=O)O)cc1)N(CCc1cc(C(C)C)c(OC)cc1C)c1nc2cccc(F)c2s1 (centres unmarked) [Example 76, 4-{1-[(7-fluorobenzo[d]thiazol-2-yl){2-[4-methoxy-2-methyl-5-(propan-2-yl)phenyl]ethyl}amino]propyl}benzoic acid]
< 1000	CCC(c1ccc(C(=O)O)cc1)N(CCc1ccc(OC)c(F)c1F)c1nc2cccc(F)c2s1 (centres unmarked) [Example 68, 4-(1-{[2-(2,3-difluoro-4-methoxyphenyl)ethyl](7-fluorobenzo[d]thiazol-2-yl)amino}propyl)benzoic acid]
< 1000	COc1ccc(CCN(c2nc3cccc(F)c3s2)C(C)c2ccc(C(=O)O)cc2)c(F)c1F (centres unmarked) [Example 60, 4-(1-{[2-(2,3-difluoro-4-methoxyphenyl)ethyl](7-fluorobenzo[d]thiazol-2-yl)amino}ethyl)benzoic acid]
< 1000	COc1ccc(CCN(Cc2ccc(C(=O)O)cc2)c2nc3cccc(F)c3s2)c(C)c1 [Example 50, 4-({(7-fluorobenzo[d]thiazol-2-yl)[2-(4-methoxy-2-methylphenyl)ethyl]amino}methyl)benzoic acid]
> 10000	COc1ccc(CCN(Cc2ccc(C(=O)O)cc2)c2nc3cc(C)ccc3s2)cc1 [Example 98, 4-({[2-(4-methoxyphenyl)ethyl](5-methyl-benzo[d]thiazol-2-yl)amino}methyl)benzoic acid]
> 10000	COc1ccc(OC)c(CCN(Cc2ccc(C(=O)O)cc2)c2nc3cccc(F)c3s2)c1 [Example 14, 4-({[2-(2,5-dimethoxyphenyl)ethyl](7-fluorobenzo[d]thiazol-2-yl)amino}methyl)benzoic acid]

Compound	IC50 [nM]
CCC(C)Oc1ccc(CCN(Cc2ccc(C(=O)O)cc2)c2nc3cccc(F)c3s2)cc1 (centres unmarked) [Example 30, 4-{[[2-(4-sec-butoxyphenyl)ethyl](7-fluorobenzo[d]thiazol-2-yl)amino]methyl}benzoic acid]	> 10000
